According to patent publication US12295937B2, “Psychoactive medicines and their use for treating psychiatric and neurological conditions and disorders” (Transcend Therapeutics, Inc., priority 2021, dated 2025):
Where two headings read alike, the source gives them in different places.

What was measured:
[1] = Mouse fear extinction paradigm (PTSD model); assay type: in vivo; settings: 30 mg/kg IP 30 min before extinction training; day 3
From the text: (FIG. 9A) Schematic of experimental design. A single CS-US (tone-shock) pairing on day 1 was followed by 6 CS presentations in a novel context (context B). […] On day 3, the time spent freezing to the CS was quantified. […] (FIG. 9C) No locomotor changes were observed on day 3 (t(26)=1.073, p>0.05). Data are mcan+/−SEM.
FIGS. 10A-10B: MBDB improves fear extinction in a PTSD mouse model. A single CS-US (tone-shock) pairing on day 1 was followed by 6 conditioned stimulus (CS) presentations in a novel context (context B). MBDB or saline vehicle was injected 30 min prior to extinction training on day 2. The time spent freezing to the CS was quantified on day 2. […] Data are mean+/−SEM. N=10 for MBDB group (5 mg/kg, IP) and N=16 for saline control group. **p<0.01 vs. vehicle control group.
Effective PTSD treatments facilitate the disassociation between a traumatic memory and the patient's fear response, making cues for the traumatic memory evoke less of a fear response. This is modeled in the mouse fear extinction paradigm (see FIG. 9A) which takes place over 3 days. […] On day 3 (extinction recall), the mice are “asked” if that tone (CS) still elicits a fearful response, as measured by the time spent freezing when the tone is presented. […]

[2] = molecular target: T1, 5HT5A (Homo sapiens, UniProt P47898); assay: GPCRmax screen, agonist mode, 5HT5A; assay type: cell-based; settings: 1 or 10 mM
T1 construct: host or cells: PathHunter cell lines
T1 sequence (P47898 whole entry): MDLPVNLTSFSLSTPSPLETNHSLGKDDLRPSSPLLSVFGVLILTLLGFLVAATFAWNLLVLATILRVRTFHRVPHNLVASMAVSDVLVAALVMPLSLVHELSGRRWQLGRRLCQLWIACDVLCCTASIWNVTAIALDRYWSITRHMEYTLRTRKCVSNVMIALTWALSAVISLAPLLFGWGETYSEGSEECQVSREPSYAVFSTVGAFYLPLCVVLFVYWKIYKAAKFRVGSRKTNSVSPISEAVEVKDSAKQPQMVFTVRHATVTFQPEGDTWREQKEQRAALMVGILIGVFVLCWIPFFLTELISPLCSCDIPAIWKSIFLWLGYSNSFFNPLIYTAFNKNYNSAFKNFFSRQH

[3] = molecular target: serotonin transporter (SERT) (Rattus norvegicus, UniProt P31652); assay: [3H]5HT uptake saturation in rat brain synaptosomes with or without methylone; assay type: biochemical; settings: Kd right shifted, no decrease in Bmax
Sequence of serotonin transporter (SERT) (P31652 whole entry): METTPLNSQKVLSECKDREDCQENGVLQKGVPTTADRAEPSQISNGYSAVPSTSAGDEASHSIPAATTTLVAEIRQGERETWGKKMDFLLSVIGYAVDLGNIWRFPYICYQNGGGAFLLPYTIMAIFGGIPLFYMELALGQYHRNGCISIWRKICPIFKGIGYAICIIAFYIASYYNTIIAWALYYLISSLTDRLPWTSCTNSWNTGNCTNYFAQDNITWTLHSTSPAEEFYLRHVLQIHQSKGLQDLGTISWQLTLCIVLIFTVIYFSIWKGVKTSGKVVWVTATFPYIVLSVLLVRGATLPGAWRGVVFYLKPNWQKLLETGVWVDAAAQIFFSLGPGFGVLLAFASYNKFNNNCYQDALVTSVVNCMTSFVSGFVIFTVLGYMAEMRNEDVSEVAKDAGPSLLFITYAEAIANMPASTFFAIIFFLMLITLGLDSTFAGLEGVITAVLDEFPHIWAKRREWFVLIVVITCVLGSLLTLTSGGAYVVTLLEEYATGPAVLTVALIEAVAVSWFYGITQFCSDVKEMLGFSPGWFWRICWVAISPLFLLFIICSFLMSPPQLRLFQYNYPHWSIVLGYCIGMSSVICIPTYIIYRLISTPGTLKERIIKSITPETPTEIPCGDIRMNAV

[4] = molecular target: Human serotonin 5HT2B receptor (Homo sapiens, UniProt P41595); assay: Competitive radioligand binding to 5HT2B receptor membranes
Sequence of Human serotonin 5HT2B receptor (P41595 whole entry): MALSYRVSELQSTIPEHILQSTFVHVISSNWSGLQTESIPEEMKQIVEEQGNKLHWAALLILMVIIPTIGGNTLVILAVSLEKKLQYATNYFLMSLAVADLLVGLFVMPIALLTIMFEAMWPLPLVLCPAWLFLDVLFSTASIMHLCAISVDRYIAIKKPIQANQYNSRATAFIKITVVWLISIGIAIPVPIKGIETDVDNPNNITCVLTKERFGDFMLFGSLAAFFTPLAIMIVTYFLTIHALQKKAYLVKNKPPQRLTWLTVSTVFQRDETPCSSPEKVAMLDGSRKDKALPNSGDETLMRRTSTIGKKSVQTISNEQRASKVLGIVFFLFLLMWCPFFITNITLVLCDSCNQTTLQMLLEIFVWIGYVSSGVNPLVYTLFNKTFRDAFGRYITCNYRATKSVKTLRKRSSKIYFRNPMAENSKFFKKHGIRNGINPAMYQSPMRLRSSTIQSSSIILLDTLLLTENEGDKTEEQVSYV
Description: Human serotonin 5HT2B receptor membrane preparations were divided into aliquots. On the day of the assay, membranes were diluted at 1:200 in incubation buffer. […] To each well was added 150 μL membrane preparation, 50 μL test compound, non-specific compound, or buffer alone, as well as 50 μL radioligand. The plate was incubated at 35° C. for 90 minutes with gentle agitation. […] For each concentration of drug, non-specific binding was subtracted from total binding to give specific binding. […] Ki was subsequently calculated using the ChengPrusoff equation.

[5] = molecular target: serotonin transporter (Homo sapiens, UniProt P31645); settings: cited from earlier work
Sequence of serotonin transporter (P31645 whole entry): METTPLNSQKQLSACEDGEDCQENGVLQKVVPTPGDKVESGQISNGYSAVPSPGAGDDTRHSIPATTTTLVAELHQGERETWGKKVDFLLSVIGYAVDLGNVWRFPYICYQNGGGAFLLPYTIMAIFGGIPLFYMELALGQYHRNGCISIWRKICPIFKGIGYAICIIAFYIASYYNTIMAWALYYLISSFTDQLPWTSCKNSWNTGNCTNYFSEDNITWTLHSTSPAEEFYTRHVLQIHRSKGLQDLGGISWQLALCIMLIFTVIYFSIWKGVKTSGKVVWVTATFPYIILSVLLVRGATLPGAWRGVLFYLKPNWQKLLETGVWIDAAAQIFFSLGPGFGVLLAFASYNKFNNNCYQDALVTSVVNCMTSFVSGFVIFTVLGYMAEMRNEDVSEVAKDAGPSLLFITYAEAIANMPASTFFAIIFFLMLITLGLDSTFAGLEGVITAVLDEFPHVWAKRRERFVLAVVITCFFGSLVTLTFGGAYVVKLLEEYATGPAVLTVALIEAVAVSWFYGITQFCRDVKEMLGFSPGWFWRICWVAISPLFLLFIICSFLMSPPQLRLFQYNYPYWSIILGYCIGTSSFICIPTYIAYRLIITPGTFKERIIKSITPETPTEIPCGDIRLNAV

[6] = cited from earlier work
[7] = molecular target: T2, SERT (Rattus norvegicus, UniProt P31652); assay: [3H]5-HT release from rat brain synaptosomes; assay type: biochemical; set-up: from tissue; synaptosomes for uptake and release; settings: rat brain synaptosomes; read-out: Neurotransmitter release: EC50
T2 sequence (P31652 whole entry, the tested form may be a part): as the sequence (P31652 whole entry) above
Description: Test compounds and synaptosomes were prepared as described for uptake inhibition assays. Synaptosomes treated with [^3H]5-HT, [^3H]DA or [^3H]NE were loaded onto filter chambers containing GF/C filters and placed in a superfusion system. Oxygenated Krebs buffer was perfused through the chambers at a rate of 1.5 mL/minute at 35° C. using either an 8-channel or a 12-channel peristaltic pump. Trapped air bubbles were removed from the filters prior to collecting fractions to ensure an even flow over the synaptosomal bed. After a superfusion period of 45 minutes, 2 basal fractions were collected followed by 6 fractions following the addition of the test drug. […] Scintillation cocktail was added, and the filters counted to determine residual radioactivity. Drug-evoked release of neurotransmitter was calculated by subtracting the average of the two basal fractions (collected prior to the drug addition), from the four fractions collected in the presence of drug. The drug-evoked release was then expressed as a percentage of the basal release. Potassium-evoked release was calculated by subtracting the average of two fractions collected prior to the addition of high KCl buffer from that in the two fractions following addition of high KCl buffer. Potassium-stimulated release was calculated as a percentage of basal release. […]

[8] = molecular target: T2, SERT; assay: [3H]5-HT uptake inhibition in rat brain synaptosomes; settings: read-out: Reuptake inhibition: IC50; rat brain synaptosomes
[9] = molecular target: 168 GPCRs (Homo sapiens, UniProt P30556); assay: β-arrestin GPCR screen (PathHunter / GPCRmax), antagonist mode
Sequence of 168 GPCRs (Homo sapiens, UniProt P30556) (P30556 whole entry): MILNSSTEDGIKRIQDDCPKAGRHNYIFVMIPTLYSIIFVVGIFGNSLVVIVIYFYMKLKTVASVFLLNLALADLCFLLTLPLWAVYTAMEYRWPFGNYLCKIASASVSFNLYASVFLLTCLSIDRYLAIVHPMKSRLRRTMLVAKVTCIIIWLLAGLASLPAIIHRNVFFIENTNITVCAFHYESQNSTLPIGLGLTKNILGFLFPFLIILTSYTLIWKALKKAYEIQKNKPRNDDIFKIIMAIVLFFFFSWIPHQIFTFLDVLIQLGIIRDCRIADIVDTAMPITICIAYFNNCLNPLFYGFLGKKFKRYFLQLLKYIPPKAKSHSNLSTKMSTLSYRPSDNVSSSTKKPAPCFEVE

[10] = molecular target: 168 GPCRs (Homo sapiens, UniProt P30874); assay: as above; settings: SSTR2; Antagonist; 1 uM
Sequence of 168 GPCRs (Homo sapiens, UniProt P30874) (P30874 whole entry): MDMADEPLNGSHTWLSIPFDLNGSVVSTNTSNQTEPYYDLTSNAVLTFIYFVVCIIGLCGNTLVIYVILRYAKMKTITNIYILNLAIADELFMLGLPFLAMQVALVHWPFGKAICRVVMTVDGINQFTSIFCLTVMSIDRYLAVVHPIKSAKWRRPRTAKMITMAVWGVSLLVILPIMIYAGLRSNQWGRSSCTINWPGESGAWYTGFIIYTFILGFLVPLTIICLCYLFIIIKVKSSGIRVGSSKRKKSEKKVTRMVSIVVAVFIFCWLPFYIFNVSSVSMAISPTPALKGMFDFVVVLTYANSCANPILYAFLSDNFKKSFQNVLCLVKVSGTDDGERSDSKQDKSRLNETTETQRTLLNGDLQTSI

[11] = molecular target: 168 GPCRs (Homo sapiens, UniProt P51685); assay: as above; settings: CCR8, Antagonist mode, 10 uM
Sequence of 168 GPCRs (Homo sapiens, UniProt P51685) (P51685 whole entry): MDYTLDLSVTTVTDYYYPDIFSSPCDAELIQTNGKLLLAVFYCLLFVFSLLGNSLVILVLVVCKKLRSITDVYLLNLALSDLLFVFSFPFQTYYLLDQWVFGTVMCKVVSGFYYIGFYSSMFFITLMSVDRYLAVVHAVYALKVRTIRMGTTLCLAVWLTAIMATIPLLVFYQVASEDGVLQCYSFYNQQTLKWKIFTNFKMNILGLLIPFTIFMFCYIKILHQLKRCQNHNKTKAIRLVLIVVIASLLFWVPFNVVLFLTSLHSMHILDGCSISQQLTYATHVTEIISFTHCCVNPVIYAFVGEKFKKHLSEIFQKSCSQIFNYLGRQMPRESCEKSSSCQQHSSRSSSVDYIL

Question: Which “Enhancement of fear extinction recall vs. saline controls” value [1] does the source give for `CNC(C)C(=O)c1ccc2c(c1)OCO2` (stereo not drawn) [Methylone, 3,4-methylenedioxy-N-methylcathinone] here?
Answer: Its value is roughly 60%.

Question: And the “Agonist % activity (greatest activity detected)” value [2]?
Answer: Its value is 13.9%.

Question: What about the “Type of interaction at the SERT” value [3] of the same compound?
Answer: Its value is “competitive”.

Question: And the IC50 [4]?
Answer: Its IC50 is 4.28 µM.

Question: What about the Ki [4] of the same compound?
Answer: The Ki was 3.75 µM.

Question: And the “Affinity for the serotonin transporter, times lower compared to MDMA” value [5]?
Answer: Its value is 3 ×.

Question: What about the “Cmax (geometric mean)” value ([6]; 50 mg oral, N = 3) of the same compound?
Answer: Its value is 151.2 ng/mL.

Question: And the “AUC10hr (geometric mean)” value ([6]; 50 mg oral)?
Answer: The value was 725 ng·h/mL.

Question: What about the “AUC24hr (geometric mean)” value ([6]; 50 mg oral) of the same compound?
Answer: The value was 988 ng·h/mL.

Question: And the “AUCinf (geometric mean)” value ([6]; 50 mg oral)?
Answer: Its value is 1062 ng·h/mL.

Question: What about the “Half-life (geometric mean)” value ([6]; 50 mg oral) of the same compound?
Answer: Its value is 6.2 h.

Question: What about the “Tmax (median)” value ([6]; 50 mg oral) of the same compound?
Answer: Its value is 1.5 h.

Question: And the “Cmax (geometric mean)” value ([6]; 100 mg oral, N = 6)?
Answer: The value was 283.9 ng/mL.

Question: What about the “AUC10hr (geometric mean)” value ([6]; 100 mg oral) of the same compound?
Answer: The value was 1554 ng·h/mL.

Question: And the “AUC24hr (geometric mean)” value ([6]; 100 mg oral)?
Answer: Its value is 2232 ng·h/mL.

Question: What about the “AUCinf (geometric mean)” value ([6]; 100 mg oral) of the same compound?
Answer: The value was 2410 ng·h/mL.

Question: And the “Half-life (geometric mean)” value ([6]; 100 mg oral)?
Answer: The value was 6.0 h.

Question: And the “Tmax (median)” value ([6]; 100 mg oral)?
Answer: Its value is 2.5 h.

Question: And the “Cmax (geometric mean)” value ([6]; 150 mg oral, N = 5)?
Answer: Its value is 340.2 ng/mL.

Question: And the “AUC10hr (geometric mean)” value ([6]; 150 mg oral)?
Answer: Its value is 2153 ng·h/mL.

Question: What about the “AUC24hr (geometric mean)” value ([6]; 150 mg oral) of the same compound?
Answer: The value was 3165 ng·h/mL.

Question: And the “AUCinf (geometric mean)” value ([6]; 150 mg oral)?
Answer: The value was 3509 ng·h/mL.

Question: And the “Half-life (geometric mean)” value ([6]; 150 mg oral)?
Answer: The value was 6.7 h.

Question: What about the “Cmax (geometric mean)” value ([6]; 200 mg oral, N = 7) of the same compound?
Answer: Its value is 594.2 ng/mL.

Question: And the “AUC10hr (geometric mean)” value ([6]; 200 mg oral)?
Answer: The value was 3261 ng·h/mL.

Question: What about the “AUC24hr (geometric mean)” value ([6]; 200 mg oral) of the same compound?
Answer: The value was 4676 ng·h/mL.

Question: What about the “AUCinf (geometric mean)” value ([6]; 200 mg oral) of the same compound?
Answer: The value was 5116 ng·h/mL.

Question: And the “Half-life (geometric mean)” value ([6]; 200 mg oral)?
Answer: The value was 6.5 h.

Question: What about the “Time to reach maximum concentrations (Tmax)” value ([6]; oral 50 mg to 200 mg) of the same compound?
Answer: Its value is 1 to 2 h.

Question: And the half-life ([6]; oral 50 mg to 200 mg)?
Answer: The half-life was 6 to 7 h.

Question: What about the EC50 [7] of the same compound?
Answer: The EC50 was 0.62 µM.

Question: And the IC50 [8]?
Answer: The IC50 was 0.43 µM.

Question: And the “% Activity” value ([9]; AGTR1, Antagonist mode, 10 uM)?
Answer: Its value is −1.4%.

Question: And the “% Activity” value ([9]; AGTR1, Antagonist, 1 uM)?
Answer: Its value is 3.3%.

Question: And the “% Activity” value [10]?
Answer: Its value is −0.4%.

Question: And the “% Activity” value [11]?
Answer: The value was −0.3%.
